One test has as its target HIV-1 RT (Human immunodeficiency virus type 1 group M subtype B, UniProt P04585). Nature of the test: HIV-1 Reverse Transcriptase Assay: Inhibitor IC50 Determination. The format is biochemical. As to the method: HIV-1 Reverse Transcriptase Assay: Inhibitor IC50 Determination
HIV-1 RT assay was carried out in 96-well Millipore filtermat NOB50 plates using purified recombinant enzyme and a poly(rA)/oligo(dT)16 template-primer in a total volume of 50 μL. The assay constituents were 50 mM Tris/HCl, 50 mM NaCl, 1 mM EDTA, 6 mM MgC2, 5 μM dTTP, 0.1 μCi [^3H] dTTP, 5 μg/ml poly (rA) pre annealed to 2.5 μg/ml oligo (dT)16 and a range of inhibitor concentrations in a final concentration of 10% DMSO. Reactions were initiated by adding 5 nM HIV-1 RT and after incubation at 37° C. for 30 min, they were stopped by the addition of 50 μl ice cold 20% TCA and allowed to precipitate at 4° C. for 30 min. The precipitates were collected by applying vacuum to the plate and sequentially washing with 2×200 μl of 10% TCA and 2×200 μl 70% ethanol. Finally the plates were dried and radioactivity counted in a Wallac Microbeta 1450 after the addition of 15 VI scintillation fluid per well. IC50's were calculated by plotting % inhibition versus log10 inhibitor concentrations.

Another test deals with HXB2-strain of HIV. Nature of the test: Antiviral assay: protection of HIV-infected MT4 cells from cell death (MTT). The format is cell-based. The following applies: Human immunodeficiency virus 1, 120 h; MT4 cells infected with HXB2-strain of HIV, 5 d, MTT cell viability. The method, then: Anti-HIV antiviral activity was assessed using an adaptation of the method of Pauwels et al. {Pauwels et al., 1988, J Virol Methods 20:309-321}. The method is based on the ability of compounds to protect HIV-infected T lymphoblastoid cells (MT4 cells) from cell-death mediated by the infection. The endpoint of the assay was calculated as the concentration of compound at which the cell viability of the culture was preserved by 50% (‘50% inhibitory concentration’, IC50). The cell viability of a culture was determined by the uptake of soluble, yellow 3-[4,5-dimethylthiazol-2-yl]-2,5-diphenyltetrazolium bromide (MTT) and its reduction to a purple insoluble formazan salt. After solubilization, spectrophotometric methods were employed to measure the amount of formazan product.
MT4 cells were prepared to be in logarithmic-phase growth and a total of 2×10^6 cells infected with the HXB2-strain of HIV at a multiplicity of 0.0001 infectious units of virus per cell in a total volume of between 200-500 microliters. The cells were incubated with virus for one h at 37° C. before removal of virus. The cells are then washed in 0.01 M phosphate buffered saline, pH 7.2 before being resuspensed in culture medium for incubation in culture with serial dilutions of test compound. The culture medium used was RPMI 1640 without phenol red, supplemented with penicillin, streptomycin, L-glutamine and 10% fetal calf serum (GM10).
Test compounds were prepared as 2 mM solutions in dimethyl sulphoxide (DMSO). Four replicate, serial 2-fold dilutions in GM10 were then prepared and 50 microliters amounts placed in 96-well plates over a final nanomolar concentration range of 625-1.22. Fifty microliters GM10 and 3.5×10^4 infected cells were then added to each well. Control cultures containing no cells (blank), uninfected cells (100% viability; 4 replicates) and infected cells without compound (total virus-mediated cell death; 4 replicates) were also prepared. The cultures were then incubated at 37° C. in a humidified atmosphere of 5% CO2 in air for 5 d.
A fresh solution of 5 mg/mL MTT was prepared in 0.01 M phosphate buffered saline, pH 7.2 and 20 microliters added to each culture. The cultures were further incubated as before for 2 h. They were then mixed by pipetting up and down and 170 microliters of Triton X-100 in acidified isopropanol (10% v/v Triton X-100 in 1:250 mixture of concentrated HCl in isopropanol). When the formazan deposit was fully solubilized by further mixing, the absorbance (OD) of the cultures was measured at 540 nm and 690 nm wavelength (690 nm readings were used as blanks for artefacts between wells). The percent protection for each treated culture can be calculated from the equation: [formula]

[1] abbreviates: purified recombinant enzyme, poly(rA)/oligo(dT)16 template-primer, 37° C. 30 min, read-out: RT IC50/nM.

Like-named read-outs stand apart in the source and are kept apart here.

With `CC(C)n1nc(CO)c(COCc2cccc(C#N)c2)c1Sc1cc(Cl)cc(Cl)c1`, on HIV-1 RT (setting [1]), the IC50 worked out at 250 nM.

`COc1cc(Cc2c(CO)nn(C(C)C)c2Sc2cc(Cl)cc(Cl)c2)ccn1`: the IC50 is 38 nM with HXB2-strain of HIV and 51 nM at HIV-1 RT (setting [1]).

`COC(=O)NCc1nn(C(C)C)c(Sc2cc(Cl)cc(Cl)c2)c1Cc1ccncc1`: at HIV-1 RT (setting [1]), the IC50 came to 525 nM.

As to `CC(C)n1nc(COC(N)=O)c(Cc2ccncc2)c1Sc1cc(Cl)cc(Cl)c1`, the IC50 in the test on HXB2-strain of HIV worked out at 1 nM; at HIV-1 RT it was 32 nM.

For the compound `CC(C)n1nc(COC(N)=O)c(CO)c1Sc1cc(Cl)cc(Cl)c1`, the IC50 at HIV-1 RT (setting [1]) is 6300 nM.

Take `CC(C)n1nc(CNC(N)=O)c(Cc2ccncc2)c1Sc1cc(Cl)cc(Cl)c1`: the values for the IC50 in the test on HXB2-strain of HIV and on HIV-1 RT (setting [1]) were 1 nM and 44 nM, respectively.

Turning to `CC(C)n1nc(CO)c(Cc2ccncc2)c1Sc1cc(F)cc(F)c1`, the IC50 is 6 nM with HXB2-strain of HIV and 206 nM at HIV-1 RT (setting [1]).

Consider `CCn1nc(CO)c(Cc2ccncc2)c1Sc1cc(Cl)cc(Cl)c1`, for which the figures for the IC50 in the test with HXB2-strain of HIV and on HIV-1 RT (setting [1]) were 30 nM and 183 nM, respectively.

In the case of `CC(C)n1nc(CO)c(Cc2ccc(F)c(F)c2)c1Sc1cc(Cl)cc(Cl)c1`, the IC50 at HIV-1 RT (setting [1]) amounted to 123 nM.

In the case of `CC(C)n1nc(COC(N)=O)c(COCc2ccncc2)c1Sc1cc(Cl)cc(Cl)c1`, the IC50 turned out to be 13 nM in the test on HXB2-strain of HIV and 99 nM at HIV-1 RT (setting [1]).

As to `CC(C)n1nc(COC(N)=O)c(Cc2ccncc2)c1Sc1cc(Cl)cc(Br)c1`, the results for the IC50 in the test with HXB2-strain of HIV and at HIV-1 RT (setting [1]) were 3 nM and 31 nM, respectively.

With `CC(C)n1nc(CNS(C)(=O)=O)c(Cc2ccncc2)c1Sc1cc(Cl)cc(Cl)c1`, the IC50 at HIV-1 RT (setting [1]) was 7920 nM.

`CC(C)n1nc(CN)c(Cc2ccncc2)c1Sc1cc(Cl)cc(Cl)c1`: the IC50 in the test with HXB2-strain of HIV is 7 nM; at HIV-1 RT (setting [1]), 714 nM.

Take `CC(C)n1nc(CO)c(Cc2ccncc2)c1Sc1cc(Cl)cc(Cl)c1`: the results for the IC50 in the test on HXB2-strain of HIV and on HIV-1 RT (setting [1]) were 1.3 nM and 62 nM, respectively.

On to `Cc1ncc(Br)c(Cc2c(CO)nn(C(C)C)c2Sc2cc(Cl)cc(Cl)c2)n1`, for which, at HIV-1 RT (setting [1]), the IC50 turned out to be 518 nM.

In the case of `CCc1c(COC(N)=O)nn(C(C)C)c1Sc1cc(Cl)cc(Cl)c1`, on HIV-1 RT (setting [1]), the IC50 was 61 nM.

As to `CC(C)n1nc(COC(N)=O)c(Cc2cccs2)c1Sc1cc(Cl)cc(Cl)c1`, the IC50 with HXB2-strain of HIV is 30 nM; at HIV-1 RT (setting [1]), 211 nM.

For `CC(C)n1nc(CO)c(Cc2cccs2)c1Sc1cc(Cl)cc(Cl)c1`, the IC50 with HXB2-strain of HIV was found to be 93 nM; at HIV-1 RT (setting [1]), 434 nM.

The values are drawn from patent US6538015B1, “Anti-HIV pyrazole derivatives” (Hoffmann-La Roche Inc., priority 2001, dated 2003).
